According to ChEMBL document CHEMBL1141234, “Synthesis and SAR of highly potent dual 5-HT1A and 5-HT1B antagonists as potential antidepressant drugs” (Bioorg Med Chem Lett, 2005):

Experiments:
[1] = target: T1, 5-hydroxytryptamine receptor 1A (Homo sapiens, UniProt P08908); assay: Displacement of [35S]GTP-gamma-S from human recombinant 5HT1A receptor; type: functional
T1 sequence (P08908 whole entry): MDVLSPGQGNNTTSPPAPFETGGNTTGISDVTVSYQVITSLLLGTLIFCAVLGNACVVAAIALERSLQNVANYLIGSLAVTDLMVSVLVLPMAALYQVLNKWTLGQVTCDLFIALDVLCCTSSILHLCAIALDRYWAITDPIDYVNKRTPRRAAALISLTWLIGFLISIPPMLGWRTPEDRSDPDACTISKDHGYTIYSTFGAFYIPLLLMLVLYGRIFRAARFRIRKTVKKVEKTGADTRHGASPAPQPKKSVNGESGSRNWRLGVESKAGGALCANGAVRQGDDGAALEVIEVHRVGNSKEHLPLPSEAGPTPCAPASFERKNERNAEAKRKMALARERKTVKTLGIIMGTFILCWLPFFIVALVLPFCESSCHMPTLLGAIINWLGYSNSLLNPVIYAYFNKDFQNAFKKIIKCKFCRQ

[2] = target: T2, Adrenergic receptor alpha-1 (Homo sapiens, UniProt P35348+P25100+P35368); assay: Inhibitory activity against Adrenergic alpha-1 receptor; type: protein assay
T2 sequence (P35348 whole entry): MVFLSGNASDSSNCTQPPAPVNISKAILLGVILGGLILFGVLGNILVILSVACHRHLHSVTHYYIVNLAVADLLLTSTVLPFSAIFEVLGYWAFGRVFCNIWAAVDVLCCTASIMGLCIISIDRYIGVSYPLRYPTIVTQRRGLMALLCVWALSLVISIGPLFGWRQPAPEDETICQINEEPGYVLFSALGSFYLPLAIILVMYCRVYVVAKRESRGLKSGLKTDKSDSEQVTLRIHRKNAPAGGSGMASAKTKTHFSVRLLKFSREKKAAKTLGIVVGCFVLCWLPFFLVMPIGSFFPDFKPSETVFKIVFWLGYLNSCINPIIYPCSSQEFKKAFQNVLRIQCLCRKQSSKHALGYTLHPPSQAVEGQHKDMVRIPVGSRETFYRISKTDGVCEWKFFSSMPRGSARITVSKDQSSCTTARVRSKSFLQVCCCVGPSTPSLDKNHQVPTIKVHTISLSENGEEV
T2 sequence (P25100 whole entry): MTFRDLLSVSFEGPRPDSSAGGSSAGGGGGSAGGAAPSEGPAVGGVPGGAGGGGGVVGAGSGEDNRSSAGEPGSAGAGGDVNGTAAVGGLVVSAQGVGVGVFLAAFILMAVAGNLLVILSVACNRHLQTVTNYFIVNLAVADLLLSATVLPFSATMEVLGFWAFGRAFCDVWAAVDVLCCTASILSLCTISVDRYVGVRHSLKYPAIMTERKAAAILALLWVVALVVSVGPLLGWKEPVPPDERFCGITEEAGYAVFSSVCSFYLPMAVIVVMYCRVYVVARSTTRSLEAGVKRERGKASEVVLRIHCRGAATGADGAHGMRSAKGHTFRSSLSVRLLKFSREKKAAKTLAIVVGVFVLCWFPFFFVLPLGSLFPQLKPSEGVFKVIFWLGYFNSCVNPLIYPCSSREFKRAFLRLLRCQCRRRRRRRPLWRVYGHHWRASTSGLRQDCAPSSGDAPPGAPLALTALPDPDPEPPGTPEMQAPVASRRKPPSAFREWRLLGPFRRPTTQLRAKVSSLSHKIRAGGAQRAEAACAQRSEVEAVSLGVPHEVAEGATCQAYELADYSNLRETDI
T2 sequence (P35368 whole entry): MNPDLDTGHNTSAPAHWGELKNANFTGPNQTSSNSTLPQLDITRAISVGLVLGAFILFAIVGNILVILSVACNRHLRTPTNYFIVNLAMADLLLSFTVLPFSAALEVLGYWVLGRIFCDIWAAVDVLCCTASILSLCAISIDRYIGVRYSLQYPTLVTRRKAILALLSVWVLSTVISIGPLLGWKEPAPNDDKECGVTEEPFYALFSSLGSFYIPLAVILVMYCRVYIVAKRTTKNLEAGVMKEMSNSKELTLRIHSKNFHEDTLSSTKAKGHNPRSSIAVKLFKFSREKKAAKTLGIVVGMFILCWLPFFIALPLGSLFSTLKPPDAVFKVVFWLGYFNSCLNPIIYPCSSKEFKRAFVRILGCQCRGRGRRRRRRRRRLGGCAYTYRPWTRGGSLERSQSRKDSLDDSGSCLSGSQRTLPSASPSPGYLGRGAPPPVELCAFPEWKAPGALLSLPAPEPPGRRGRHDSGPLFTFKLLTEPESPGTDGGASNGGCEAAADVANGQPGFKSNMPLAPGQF

[3] = target: T3, 5-hydroxytryptamine receptor 1B (Homo sapiens, UniProt P28222); assay: Intrinsic activity for 5HT1B receptor in FLIPR assay; type: functional
[4] = target: T3, 5-hydroxytryptamine receptor 1B; assay: Functional activity in FLIPR assay for 5HT1B receptor
[5] = target: T4, 5-hydroxytryptamine receptor 1A (Homo sapiens) (UniProt P08908); assay: Intrinsic activity for 5HT1A receptor in [35S]GTP-gamma-S assay; type: functional
T4 sequence (whole entry): T1 sequence (P08908 whole entry)

[6] = target: T4, 5-hydroxytryptamine receptor 1A (Homo sapiens); assay: Functional activity in [35S]GTP-gamma-S assay for 5HT1A receptor
[7] = target: T3, 5-hydroxytryptamine receptor 1B; assay: Inhibitory activity against human recombinant 5HT1B receptor co-expressed with G-protein chimera Gqo5 in HEK293 cells by FLIPR; type: functional, cell-based

T3 sequence (P28222 whole entry): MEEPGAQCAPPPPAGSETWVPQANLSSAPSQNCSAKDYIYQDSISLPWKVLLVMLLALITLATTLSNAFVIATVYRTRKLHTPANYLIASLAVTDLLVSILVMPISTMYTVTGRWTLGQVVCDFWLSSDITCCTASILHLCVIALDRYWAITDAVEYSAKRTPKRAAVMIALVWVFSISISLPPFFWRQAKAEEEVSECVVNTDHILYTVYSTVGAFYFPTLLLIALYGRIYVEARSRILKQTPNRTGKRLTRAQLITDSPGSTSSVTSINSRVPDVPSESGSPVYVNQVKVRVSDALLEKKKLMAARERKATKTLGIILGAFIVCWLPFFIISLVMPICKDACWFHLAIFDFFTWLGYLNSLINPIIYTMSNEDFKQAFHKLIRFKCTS

Structure (SMILES) | Ki [1] [nM] | Ki [2] [nM] | Emax [3] [%] | Activity ([4]; filed as partial agonist) | Emax [5] [%] | Activity ([6]; filed as partial agonist) | Ki [7] [nM] | Activity ([4]; filed as antagonist) | Activity ([6]; filed as antagonist) | Activity ([4]; filed as agonist) | Activity ([6]; filed as agonist)
CN1CCc2c(sc3ncn(CCN4CCN(c5cccc6c5OCC6)CC4)c(=O)c23)C1 | 0.6 | 0.2 | < 20 |  | 10 | Partial agonist | 0.5 | Antagonist |  |  | 
CN1CCc2c(sc3ncn(CCN4CCN(c5cccc6ncccc56)CC4)c(=O)c23)C1 | 1.5 | 26.7 | 20 | Partial agonist | < 10 |  | 1.7 |  | Antagonist |  | 
CN1CCc2c(sc3ncn(CCN4CCN(c5nccc6ccccc56)CC4)c(=O)c23)C1 | 0.7 | 41.1 | 20 | Partial agonist | 10 | Partial agonist | 0.5 |  |  |  | 
COc1ccc(Cl)cc1N1CCN(CCn2cnc3sc4c(c3c2=O)CCN(C)C4)CC1 | 3 | 0.1 | < 20 |  | < 10 |  | 70.3 | Antagonist | Antagonist |  | 
COc1ccc(C(F)(F)F)cc1N1CCN(CCn2cnc3sc4c(c3c2=O)CCN(C)C4)CC1 | 104 | 18 |  |  |  |  | 42.3 |  |  |  | 
CN1CCc2c(sc3ncn(CCN4CCN(c5cccc6ccccc56)CC4)c(=O)c23)C1 | 0.7 | 13.2 | 20 | Partial agonist | 10 | Partial agonist | 0.5 |  |  |  | 
COc1ccc(OC)c(N2CCN(CCn3cnc4sc5c(c4c3=O)CCN(C)C5)CC2)c1 | 24.2 | 8.4 | < 20 |  | < 10 |  | 50.2 | Antagonist | Antagonist |  | 
COc1ccc(-c2ccccc2)cc1N1CCN(CCn2cnc3sc4c(c3c2=O)CCN(C)C4)CC1 | 429 | 0.1 |  |  |  |  | 116 |  |  |  | 
CN1CCc2c(sc3ncn(CCN4CCN(c5ccccc5OCC(C)(C)C)CC4)c(=O)c23)C1 | 2.5 | 0.2 | < 20 |  | 10 | Partial agonist | 5.4 | Antagonist |  |  | 
CN1CCc2c(sc3ncn(CCN4CCN(c5ncnc6ccccc56)CC4)c(=O)c23)C1 | 93.4 | 6780 | > 80 |  | < 10 |  | 320 |  | Antagonist | Agonist | 
COc1c(Cl)cc(Cl)cc1N1CCN(CCn2cnc3sc4c(c3c2=O)CCN(C)C4)CC1 | 25.8 | 14.8 | 20 | Partial agonist | > 70 |  | 3.8 |  |  |  | Agonist
CC(C)Oc1ccccc1N1CCN(CCn2cnc3sc4c(c3c2=O)CCN(C)C4)CC1 | 0.7 | 0.1 | < 20 |  | 10 | Partial agonist | 2.5 | Antagonist |  |  | 
CN1CCc2c(sc3ncn(CCN4CCN(c5cccc6cnccc56)CC4)c(=O)c23)C1 | 0.9 | 129.1 | 20 | Partial agonist | 10 | Partial agonist | 0.9 |  |  |  | 
COc1ccccc1N1CCN(CCn2cnc3sc4c(c3c2=O)CCN(C)C4)CC1 | 0.7 | 0.4 | 20 | Partial agonist | < 10 |  | 1.4 |  | Antagonist |  | 
CN1CCc2c(sc3ncn(CCN4CCN(c5cccc6ccncc56)CC4)c(=O)c23)C1 | 0.3 | 1.2 | 20 | Partial agonist | 10 | Partial agonist | 0.1 |  |  |  | 

Further molecules by falling Ki [1], results first:

Ki [1] [nM] | Ki [2] [nM] | Emax [3] [%] | Activity ([4]; filed as partial agonist) | Emax [5] [%] | Activity ([6]; filed as partial agonist) | Ki [7] [nM] | Activity ([4]; filed as antagonist) | Activity ([6]; filed as antagonist) | Activity ([4]; filed as agonist) | Activity ([6]; filed as agonist) | Structure (SMILES)
18.8 | 0.5 | < 20 |  | 10 | Partial agonist | 3.3 | Antagonist |  |  |  | COc1cc(Cl)ccc1N1CCN(CCn2cnc3sc4c(c3c2=O)CCN(C)C4)CC1
11.8 | 4.5 | 20 | Partial agonist | 10 | Partial agonist | 5.4 |  |  |  |  | COc1ccc2ccccc2c1N1CCN(CCn2cnc3sc4c(c3c2=O)CCN(C)C4)CC1
9.1 | 121.1 | 20 | Partial agonist | 10 | Partial agonist | 36.6 |  |  |  |  | CN1CCc2c(sc3ncn(CCN4CCN(c5ccc6ccccc6n5)CC4)c(=O)c23)C1
2.9 | 1.7 | 20 | Partial agonist | < 10 |  | 3.5 |  | Antagonist |  |  | Cc1ccccc1N1CCN(CCn2cnc3sc4c(c3c2=O)CCN(C)C4)CC1
2.5 | 7 | 20 | Partial agonist | 10 | Partial agonist | 0.5 |  |  |  |  | COc1c(Cl)cccc1N1CCN(CCn2cnc3sc4c(c3c2=O)CCN(C)C4)CC1
2.5 | 0.2 | < 20 |  | 10 | Partial agonist | 4.9 | Antagonist |  |  |  | COc1cc(Cl)c(Cl)cc1N1CCN(CCn2cnc3sc4c(c3c2=O)CCN(C)C4)CC1
2.5 | 1.8 | > 80 |  | 10 | Partial agonist | 1.4 |  |  | Agonist |  | CN1CCc2c(sc3ncn(CCN4CCN(c5ccccc5C#N)CC4)c(=O)c23)C1
1.9 | 4 | 20 | Partial agonist | 10 | Partial agonist | 1.2 |  |  |  |  | CN1CCc2c(sc3ncn(CCN4CCN(c5ccccc5OCc5ccccc5)CC4)c(=O)c23)C1
0.4 | 0.5 | < 20 |  | 10 | Partial agonist | 0.4 | Antagonist |  |  |  | CN1CCc2c(sc3ncn(CCN4CCN(c5cccc6ccsc56)CC4)c(=O)c23)C1
0.2 | 1.2 | 20 | Partial agonist | 10 | Partial agonist | 0.3 |  |  |  |  | CN1CCc2c(sc3ncn(CCN4CCN(c5cccc6cccnc56)CC4)c(=O)c23)C1
